# Read-outs that look alike come from different tables or passages of the source.
# Legend:
# [1] = CCK-8 cell viability assay; type: cell-based, Murine; settings: mouse
# Description: (§1) Murine RAW 264.7 macrophages were purchased from the American Tissue Culture Collection (Manassas, USA). These cells were incubated in DMEM supplemented with 10% FBS, 100 U/mL penicillin and 100 U/mL streptomycin in humidified 5% carbon dioxide (CO2) at 37 °C [16, 17].
# (§2) The effects of 19 constituents on the viability of RAW 264.7 macrophages were assessed by CCK-8 assay. Prior to treatment, RAW 264.7 macrophages (5 × 10^3 cells/well) were seeded into 96-well plates and incubated for 24 h. All cultured cells were treated with or without 19 compounds at a concentration of 40 μM at 37 °C for 24 h. After incubation, 10 μL of CCK-8 solution was added to each well and incubated at 37 °C. After 2 h, the absorbance of each well was measured at 450 nm in a microplate reader. Cell viability was calculated using the following formular:
# (§3) Cell viability (%) = Asample/Acontrol × 100, where Asample and Acontrol are the absorbance of cells treated with the compound and untreated cells, respectively. Moreover, the latter is expressed as 100% cell viability.
# [2] = tested on: NO production in LPS-stimulated RAW 264.7 macrophages; test: NO production by the Griess method; type: cell-based, Murine; settings: LPS 1 μg/mL; for IC50: RAW 264.7 macrophages, mean ± SD, n = 3; for inhibition at 40 µM: RAW264.7, read-out: NO inhibition rate; for inhibition at 40 µM / NO inhibition rate: 40 μM
# Description: as §1
# The effects of 19 constituents on NO production in LPS-induced RAW 264.7 macrophages were determined using the Griess method. Prior to treatment, RAW 264.7 macrophages (5 × 10^3 cells/well) were seeded into 96-well plates and incubated for 24 h. […] After 1 h, cells were incubated with or without LPS at a concentration of 1 μg/mL at 37 °C for 24 h. After incubation, 50 μL of each supernatant solution was collected and mixed with equal volumes of Griess Reagent I and Griess Reagent II, respectively. The absorbance (A) was measured at 540 nm after 10 min of incubation at room temperature. The standard concentration of sodium nitrite was used to calculate the nitrite concentration. Moreover, the NO inhibition rate (%) = (ALPS − ALPS + sample)/(ALPS − Acontrol) × 100, where ALPS, ALPS + sample, and Acontrol are the absorbance of LPS model group, LPS + sample group, and DMEM group, respectively.
# [3] = tested on: TNF-α in LPS-stimulated RAW 264.7 macrophages; test: TNF-α secretion by ELISA; type: cell-based, Murine; settings: 20 μM, LPS 1 μg/mL, 24 h, compared to the LPS group, p < 0.01
# Description: (§4) The logarithmic growth phase of RAW 264.7 macrophages was inoculated in 96-well plates at a density of 5 × 10^3 cells/well. After 24 h of incubation, these cells were pretreated with respective concentrations of 20 μM of each compound (1, 4–6, 15 and 17) for 1 h, followed by the addition of LPS (1 μg/mL) for 24 h. Finally, 50 μL of each supernatant solution was taken to measure the concentrations of TNF-α, PGE2, IL-1β and IL-6, using the corresponding commercially available murine ELISA kits in accordance with the manufacturer’s instructions.
# [4] = tested on: PGE2 in LPS-stimulated RAW 264.7 macrophages; test: PGE2 secretion by ELISA; type: cell-based, Murine; settings: 20 μM, LPS 1 μg/mL, 24 h, compared to the LPS group, p < 0.01
# Description: as §4
# [5] = tested on: IL-1β in LPS-stimulated RAW 264.7 macrophages; test: IL-1β secretion by ELISA; type: cell-based, Murine; settings: 20 μM, LPS 1 μg/mL, 24 h, compared to the LPS group, p < 0.01
# Description: as §4
# [6] = tested on: IL-6 in LPS-stimulated RAW 264.7 macrophages; test: IL-6 secretion by ELISA; type: cell-based, Murine; settings: 20 μM, LPS 1 μg/mL, 24 h, compared to the LPS group, p < 0.01
# Description: as §4
# [7] = tested on: phosphorylated NF-κB p65 in LPS-stimulated RAW 264.7 macrophages; test: NF-κB activation by Western blotting; type: cell-based, Murine; settings: 20 μM, LPS 1 μg/mL, 24 h, compared to the LPS group, p < 0.01
# Description: RAW 264.7 macrophages were seeded and pretreated with respective concentrations of 20 μM of each compound (1, 4–6, 15 and 17) for 1 h, followed by the addition of LPS (1 μg/mL) for 24 h. Subsequently, the total protein was extracted by resuspending the cells in RIPA lysis buffer. In addition, protein concentrations were measured by a Bicinchoninic acid (BCA) assay kit. Proteins were separated using SDS-PAGE gels and then electroplated onto a PVDF membrane, which was blocked with 5% skim milk for 1 h at room temperature in Tris-buffered saline-Tween (TBST). Membranes were washed three times with TBST and then incubated overnight at 4 °C in diluted (1:1000) primary antibody solution (anti-NF-κB p65 or anti-phosphorylated-NF-κB p65). After washing three times with TBST, the membranes were incubated with a 1:5000 dilution of HRP-conjugated secondary antibody for 1 h at room temperature. The immunoreactive bands were determined by densitometry and quantified using a Bio-Rad auto-developer (Bio-Rad, California, USA). All results are expressed as relative ratios to the reference protein GAPDH [16, 17].
# [8] = tested on: inflammatory cytokines in cells; set-up: method as in PMID 20221843, PMID 12105943, PMID 18448292, PMID 25821492; settings: cited from earlier work
# RAW 264.7 macrophages = test: CCK-8 cell viability assay; type: cell-based, Murine; settings: 40 μM, 24 h, RAW 264.7 macrophages, mean ± SD, n = 3
# Description: as §1, §2, §3
# BV2 microglia = tested on: BV2 microglia; set-up: method as in PMID 22552813; settings: 40, 60 and 80 μM; cited from earlier work
# [9] = 40 μM, 24 h, RAW 264.7 macrophages, mean ± SD, n = 3, read-out: Cell viability (%)
Compound,IC50 ([2]; 24 h),"IC50 ([2]; Mus musculus, RAW264.7, 24 h)","viability at 24 h, 40 µM [1]","inhibition at 40 µM ([2]; Mus musculus, 24 h)",Cell viability (%) (RAW 264.7 macrophages),NO inhibition rate ([2]; 24 h),also measured
"O=c1c(O)c(-c2ccc(O)cc2)oc2cc(O)cc(O)c12 [Compound 1, kaempferol]",18.4 ± 2.67 µM,≤ 20 µM,92.4 ± 3.96%,> 50%,–,–,Level of TNF-α [3]: significantly reduced; Level of PGE2 [4]: significantly reduced; Level of IL-1β [5]: significantly reduced; Level of IL-6 [6]: significantly reduced; Phosphorylation of NF-κB p65 levels [7]: significantly lower; Anti-inflammatory effects by suppressing the secretion of inflammatory cytokines [8]: anti-inflammatory effects
"O=c1c(O[C@@H]2O[C@H](CO)[C@@H](O)[C@H](O)[C@H]2O)c(-c2ccc(O)cc2)oc2cc(O)cc(O)c12 [Compound 2, astragalin]",–,> 40 µM,–,≤ 50%,–,–,"viability at 24 h, 40 µM [1, 9]: 95 ± 1.86%; Anti-inflammatory effects by suppressing the secretion of inflammatory cytokines [8]: anti-inflammatory effects"
"O=c1c(O)c(-c2ccc(O)cc2)oc2cc(O[C@@H]3O[C@H](CO)[C@@H](O)[C@H](O)[C@H]3O)cc(O)c12 [Compound 3, kaempferol-7-O-β-D-glucopyranoside]",–,> 40 µM,91.1 ± 5.28%,≤ 50%,–,–,–
"O=c1c(O[C@@H]2O[C@H](CO)[C@@H](O)[C@H](O)[C@H]2O)c(-c2ccc(O)cc2)oc2cc(O[C@@H]3O[C@H](CO)[C@@H](O)[C@H](O)[C@H]3O)cc(O)c12 [Compound 4, kaempferol-3,7-di-O-β-D-glucopyranoside]",–,12.2 ± 1.18 µM,93.4 ± 6.34%,> 50%,–,–,–
"O=c1c(O[C@@H]2O[C@H](CO)[C@@H](O)[C@H](O)[C@H]2O[C@@H]2O[C@H](CO)[C@@H](O)[C@H](O)[C@H]2O)c(-c2ccc(O)cc2)oc2cc(O)cc(O)c12 [Compound 5, kaempferol-3-O-sophoroside]",13.1 ± 1.61 µM,–,–,–,93.48 ± 5.33%,–,–
"COc1cc(O)c2c(=O)c(O[C@@H]3O[C@H](CO)[C@@H](O)[C@H](O)[C@H]3O[C@@H]3O[C@H](CO)[C@@H](O)[C@H](O)[C@H]3O)c(-c3ccc(O)cc3)oc2c1 [Compound 6, plantanone A]",12.6 ± 0.76 µM,–,–,–,96.89 ± 1.04%,–,–
"O=c1c(O[C@@H]2O[C@H](CO)[C@@H](O)[C@H](O)[C@H]2O[C@@H]2O[C@H](CO)[C@@H](O)[C@H](O)[C@H]2O)c(-c2ccc(O)cc2)oc2cc(O[C@@H]3O[C@H](CO)[C@@H](O)[C@H](O)[C@H]3O)cc(O)c12 [Compound 7, kaempferol-3-O-β-D-[β-D-glucopyranosyl-(1 → 2)-glucopyranoside]-7-O-β-D-glucopyranoside]",26.5 ± 1.53 µM,–,–,–,94.03 ± 4.52%,–,–
"C[C@@H]1O[C@@H](OC[C@H]2O[C@@H](Oc3c(-c4ccc(O)cc4)oc4cc(O[C@@H]5O[C@H](CO)[C@@H](O)[C@H](O)[C@H]5O)cc(O)c4c3=O)[C@H](O)[C@@H](O)[C@@H]2O)[C@H](O)[C@H](O)[C@H]1O [Compound 8, kaempferol-3-O-rutinoside-7-O-glucopyranoside]",> 40 µM,–,–,–,95.48 ± 3.54%,–,–
"C[C@@H]1O[C@@H](OC[C@H]2O[C@@H](O[C@H]3[C@H](Oc4c(-c5ccc(O)cc5)oc5cc(O)cc(O)c5c4=O)O[C@H](CO)[C@@H](O)[C@@H]3O)[C@H](O)[C@@H](O)[C@@H]2O)[C@H](O)[C@H](O)[C@H]1O [Compound 9, kaempferol-3-O-α-L-rhamnopyranosyl-(1 → 6)-β-D-glucopyranosyl-(1 → 2)-β-D-glucopyranoside]",–,> 40 µM,90.7 ± 3.71%,≤ 50%,–,–,–
"C[C@@H]1O[C@@H](OC[C@H]2O[C@@H](Oc3c(-c4ccc(O)cc4)oc4cc(O)cc(O)c4c3=O)[C@H](O[C@@H]3O[C@H](CO)[C@@H](O)[C@H](O)[C@H]3O)[C@@H](O)[C@@H]2O)[C@H](O)[C@H](O)[C@H]1O [Compound 10, kaempferol-3-O-β-D-glucopyranosyl-(1 → 2)-[α-L-rhamnopyranosyl-(1 → 6)]-β-D-glucopyranoside]",–,> 40 µM,93.8 ± 5.06%,≤ 50%,–,–,–
kaempferol-3-O-rutinoside [Compound 11],31.2 ± 1.09 µM,–,–,–,–,greater than 50%,Anti-inflammatory effects by suppressing the secretion of inflammatory cytokines [8]: anti-inflammatory effects

# Second part, led by results:
IC50 ([2]; 24 h),"IC50 ([2]; Mus musculus, RAW264.7, 24 h)",Compound,"viability at 24 h, 40 µM [1]","inhibition at 40 µM ([2]; Mus musculus, 24 h)",Cell viability (%) (RAW 264.7 macrophages),NO inhibition rate ([2]; 24 h),also measured
–,38.5 ± 2.78 µM,"O=C1C[C@@H](c2ccc(O)cc2)Oc2cc(O)cc(O)c21 [Compound 14, naringenin]",–,> 50%,–,–,"viability at 24 h, 40 µM [1, 9]: 93 ± 6.19%; Anti-inflammatory effect via inhibition of NF-κB and MAPKs pathways (BV2 microglia): possessed anti-inflammatory effect"
18.3 ± 1.71 µM,≤ 20 µM,"O=C1c2c(O)cc(O)cc2O[C@H](c2ccc(O)cc2)[C@H]1O [Compound 15, dihydrokaempferol]",91.3 ± 5.38%,> 50%,–,–,Level of TNF-α [3]: significantly reduced; Level of PGE2 [4]: significantly reduced; Level of IL-1β [5]: significantly reduced; Level of IL-6 [6]: significantly reduced; Phosphorylation of NF-κB p65 levels [7]: significantly lower; Anti-inflammatory effects by suppressing the secretion of inflammatory cytokines [8]: anti-inflammatory effects
19.9 ± 2.01 µM,–,"OC[C@H]1O[C@@H](OCCc2ccccc2)[C@H](O)[C@@H](O)[C@@H]1O [Compound 17, phenethyl-O-β-D-glucopyranoside]",–,–,92.21 ± 3.48%,greater than 50%,Level of TNF-α [3]: significantly reduced; Level of PGE2 [4]: significantly reduced; Level of IL-1β [5]: significantly reduced; Level of IL-6 [6]: significantly reduced; Phosphorylation of NF-κB p65 levels [7]: significantly lower
> 40 µM,–,"OC[C@H]1O[C@@H](OC[C@H]2O[C@@H](OCCc3ccccc3)[C@H](O)[C@@H](O)[C@@H]2O)[C@H](O)[C@@H](O)[C@@H]1O [Compound 18, phenethanol-β-gentiobioside]",–,–,92.51 ± 5.62%,≤ 50%,–
> 40 µM,–,"C[C@@H]1O[C@@H](OC[C@H]2O[C@@H](OCCc3ccccc3)[C@H](O)[C@@H](O)[C@@H]2O)[C@H](O)[C@H](O)[C@H]1O [Compound 19, phenethyl-O-rutinoside]",–,–,92.30 ± 9.38%,≤ 50%,–
> 40 µM,–,hostaflavanone A [Compound 16],–,–,92.56 ± 1.97%,≤ 50%,–
> 40 µM,–,plantanone B [Compound 12],–,–,91.93 ± 8.04%,≤ 50%,–
36.1 ± 3.77 µM,–,plantanone D [Compound 13],–,–,91.84 ± 1.11%,–,–

# Reference: article PMC8895762 (BMC Complementary Medicine and Therapies, 2022)
